From the kinase profiling compilation of Christmann-Franck et al. (2016)

What was measured:
Assay in all cases: radiometric filter-binding kinase assay, Kinase HotSpot
Conditions in all cases: compound 0.5 µM; ATP 10 µM
MERTK (human) = MERTK (human) (UniProt Q12866)
GSK3B (human) = GSK3B (human) (UniProt P49841)
MAP3K7 TAB1 (human) = MAP3K7 TAB1 (human) (UniProt O43318+Q15750)
PTK2 (human) = PTK2 (human) (UniProt Q05397)
PRKCD (human) = PRKCD (human) (UniProt Q05655)
TAOK2 (human) = TAOK2 (human) (UniProt Q9UL54)
MST4 (human) = MST4 (human) (UniProt Q9P289)
FRK (human) = FRK (human) (UniProt P42685)
AURKC (human) = AURKC (human) (UniProt Q9UQB9)
BTK (human) = BTK (human) (UniProt Q06187)
RPS6KA5 KD2 (human) = RPS6KA5 KD2 (human) (UniProt O75582)
CLK1 (human) = CLK1 (human) (UniProt P49759)
PDGFRB (human) = PDGFRB (human) (UniProt P09619)
MAPK13 (human) = MAPK13 (human) (UniProt O15264)
MARK4 (human) = MARK4 (human) (UniProt Q96L34)
EPHB2 (human) = EPHB2 (human) (UniProt P29323)
CAMK1G (human) = CAMK1G (human) (UniProt Q96NX5)
MAP4K5 (human) = MAP4K5 (human) (UniProt Q9Y4K4)
PDPK1 (human) = PDPK1 (human) (UniProt O15530)
MAP3K3 (human) = MAP3K3 (human) (UniProt Q99759)
PRKCZ (human) = PRKCZ (human) (UniProt Q05513)
ZAP70 (human) = ZAP70 (human) (UniProt P43403)
PLK3 (human) = PLK3 (human) (UniProt Q9H4B4)
IKBKB (human) = IKBKB (human) (UniProt O14920)
CDC42BPB (human) = CDC42BPB (human) (UniProt Q9Y5S2)
DYRK4 (human) = DYRK4 (human) (UniProt Q9NR20)
MAPKAPK5 (human) = MAPKAPK5 (human) (UniProt Q8IW41)
TSSK2 (human) = TSSK2 (human) (UniProt Q96PF2)
RPS6KA6 KD1 KD2 (human) = RPS6KA6 KD1 KD2 (human) (UniProt Q9UK32)
PAK2 (human) = PAK2 (human) (UniProt Q13177)
IGF1R (human) = IGF1R (human) (UniProt P08069)
MAP3K2 (human) = MAP3K2 (human) (UniProt Q9Y2U5)
LIMK1 (human) = LIMK1 (human) (UniProt P53667)
PRKX (human) = PRKX (human) (UniProt P51817)
RIPK2 (human) = RIPK2 (human) (UniProt O43353)
LCK (human) = LCK (human) (UniProt P06239)
STK11 (human) = STK11 (human) (UniProt Q15831)
RET (human) = RET (human) (UniProt P07949)
TXK (human) = TXK (human) (UniProt P42681)
MINK1 (human) = MINK1 (human) (UniProt Q8N4C8)
DSTYK (human) = DSTYK (human) (UniProt Q6XUX3)
TGFBR1 (human) = TGFBR1 (human) (UniProt P36897)

Chain of RET (human) (P07949 whole entry, looked up): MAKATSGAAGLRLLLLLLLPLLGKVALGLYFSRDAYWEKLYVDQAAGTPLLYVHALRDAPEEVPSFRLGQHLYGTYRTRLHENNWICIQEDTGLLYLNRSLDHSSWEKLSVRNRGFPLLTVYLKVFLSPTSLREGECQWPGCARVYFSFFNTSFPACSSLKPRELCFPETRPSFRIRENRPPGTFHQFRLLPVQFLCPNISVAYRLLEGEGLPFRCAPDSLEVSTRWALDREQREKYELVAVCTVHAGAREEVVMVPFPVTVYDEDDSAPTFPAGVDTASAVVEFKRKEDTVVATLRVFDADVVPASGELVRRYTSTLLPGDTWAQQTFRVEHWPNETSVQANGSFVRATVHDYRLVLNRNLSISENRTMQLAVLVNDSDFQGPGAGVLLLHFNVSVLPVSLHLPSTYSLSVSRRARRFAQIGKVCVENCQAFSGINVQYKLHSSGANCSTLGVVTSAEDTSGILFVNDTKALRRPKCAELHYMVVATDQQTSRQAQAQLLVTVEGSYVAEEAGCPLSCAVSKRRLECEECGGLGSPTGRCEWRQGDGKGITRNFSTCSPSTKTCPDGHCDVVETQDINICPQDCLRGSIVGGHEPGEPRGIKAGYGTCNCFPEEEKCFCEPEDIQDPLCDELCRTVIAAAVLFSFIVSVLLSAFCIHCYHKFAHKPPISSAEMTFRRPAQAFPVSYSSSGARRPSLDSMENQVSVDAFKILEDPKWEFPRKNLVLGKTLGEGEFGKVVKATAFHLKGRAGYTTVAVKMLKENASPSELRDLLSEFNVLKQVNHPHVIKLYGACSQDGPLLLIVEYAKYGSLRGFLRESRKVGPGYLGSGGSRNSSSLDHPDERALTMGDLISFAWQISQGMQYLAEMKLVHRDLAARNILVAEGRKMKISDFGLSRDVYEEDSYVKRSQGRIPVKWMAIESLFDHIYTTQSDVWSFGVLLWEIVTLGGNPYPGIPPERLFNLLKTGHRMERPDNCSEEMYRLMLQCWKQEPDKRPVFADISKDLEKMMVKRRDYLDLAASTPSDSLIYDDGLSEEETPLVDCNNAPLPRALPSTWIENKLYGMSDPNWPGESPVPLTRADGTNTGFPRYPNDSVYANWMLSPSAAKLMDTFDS
Chain of ZAP70 (human) (P43403 whole entry, looked up): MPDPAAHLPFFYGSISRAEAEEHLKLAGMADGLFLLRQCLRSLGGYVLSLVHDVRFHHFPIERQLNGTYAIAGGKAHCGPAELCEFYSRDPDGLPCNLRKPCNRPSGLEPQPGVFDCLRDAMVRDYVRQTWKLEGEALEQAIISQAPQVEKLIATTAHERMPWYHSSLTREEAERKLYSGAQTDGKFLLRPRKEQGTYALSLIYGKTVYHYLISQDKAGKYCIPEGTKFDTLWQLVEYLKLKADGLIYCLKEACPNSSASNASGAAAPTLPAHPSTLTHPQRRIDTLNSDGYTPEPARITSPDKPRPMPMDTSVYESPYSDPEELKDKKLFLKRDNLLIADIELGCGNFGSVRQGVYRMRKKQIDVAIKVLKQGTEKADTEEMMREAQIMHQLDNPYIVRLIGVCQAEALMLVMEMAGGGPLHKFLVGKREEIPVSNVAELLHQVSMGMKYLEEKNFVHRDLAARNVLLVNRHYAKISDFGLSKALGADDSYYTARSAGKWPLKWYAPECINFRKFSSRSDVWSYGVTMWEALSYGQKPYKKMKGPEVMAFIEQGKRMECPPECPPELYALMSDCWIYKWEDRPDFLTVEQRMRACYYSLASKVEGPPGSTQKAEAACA
Chain of DYRK4 (human) (Q9NR20 whole entry, looked up): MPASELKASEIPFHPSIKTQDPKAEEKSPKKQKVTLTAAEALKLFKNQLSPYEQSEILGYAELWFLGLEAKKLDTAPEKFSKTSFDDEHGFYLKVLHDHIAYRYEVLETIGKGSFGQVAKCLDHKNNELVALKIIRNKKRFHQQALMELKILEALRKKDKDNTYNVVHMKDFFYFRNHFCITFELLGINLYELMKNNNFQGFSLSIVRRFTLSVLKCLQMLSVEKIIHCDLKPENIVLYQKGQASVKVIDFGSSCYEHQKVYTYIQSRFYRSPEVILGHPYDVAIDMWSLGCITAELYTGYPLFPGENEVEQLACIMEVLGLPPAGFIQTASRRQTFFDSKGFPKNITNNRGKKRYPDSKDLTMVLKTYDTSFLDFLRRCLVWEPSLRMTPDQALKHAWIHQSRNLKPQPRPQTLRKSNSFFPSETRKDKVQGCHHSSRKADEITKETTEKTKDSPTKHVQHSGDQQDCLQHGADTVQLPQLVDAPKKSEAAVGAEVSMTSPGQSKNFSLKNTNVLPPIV
Chain of MERTK (human) (Q12866 whole entry, looked up): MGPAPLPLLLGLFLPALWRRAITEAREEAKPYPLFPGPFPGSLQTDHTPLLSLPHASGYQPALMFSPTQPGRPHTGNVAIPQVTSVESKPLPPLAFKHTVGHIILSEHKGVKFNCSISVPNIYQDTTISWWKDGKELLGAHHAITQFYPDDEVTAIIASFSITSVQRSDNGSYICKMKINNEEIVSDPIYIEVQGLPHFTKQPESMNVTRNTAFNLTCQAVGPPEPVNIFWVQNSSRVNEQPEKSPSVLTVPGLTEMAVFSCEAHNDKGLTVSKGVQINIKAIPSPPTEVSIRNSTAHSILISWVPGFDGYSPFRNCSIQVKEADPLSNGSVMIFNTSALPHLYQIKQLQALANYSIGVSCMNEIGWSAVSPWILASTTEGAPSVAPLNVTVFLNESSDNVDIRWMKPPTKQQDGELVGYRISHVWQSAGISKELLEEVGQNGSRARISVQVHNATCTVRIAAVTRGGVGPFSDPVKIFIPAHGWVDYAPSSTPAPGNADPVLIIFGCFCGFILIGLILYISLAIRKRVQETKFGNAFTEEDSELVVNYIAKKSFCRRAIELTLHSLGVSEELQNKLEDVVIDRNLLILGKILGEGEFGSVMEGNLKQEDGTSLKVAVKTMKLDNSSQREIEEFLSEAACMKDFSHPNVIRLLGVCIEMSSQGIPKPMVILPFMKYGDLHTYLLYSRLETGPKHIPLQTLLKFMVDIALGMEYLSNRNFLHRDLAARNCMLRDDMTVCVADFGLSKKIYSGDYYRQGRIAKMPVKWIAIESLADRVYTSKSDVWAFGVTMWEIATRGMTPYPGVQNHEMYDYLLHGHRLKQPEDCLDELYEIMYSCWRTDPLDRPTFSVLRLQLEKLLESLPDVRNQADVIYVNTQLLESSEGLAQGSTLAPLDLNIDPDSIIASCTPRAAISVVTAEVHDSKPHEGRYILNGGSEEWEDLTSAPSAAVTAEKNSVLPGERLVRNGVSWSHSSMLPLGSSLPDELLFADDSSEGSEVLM
Chain of IKBKB (human) (O14920 whole entry, looked up): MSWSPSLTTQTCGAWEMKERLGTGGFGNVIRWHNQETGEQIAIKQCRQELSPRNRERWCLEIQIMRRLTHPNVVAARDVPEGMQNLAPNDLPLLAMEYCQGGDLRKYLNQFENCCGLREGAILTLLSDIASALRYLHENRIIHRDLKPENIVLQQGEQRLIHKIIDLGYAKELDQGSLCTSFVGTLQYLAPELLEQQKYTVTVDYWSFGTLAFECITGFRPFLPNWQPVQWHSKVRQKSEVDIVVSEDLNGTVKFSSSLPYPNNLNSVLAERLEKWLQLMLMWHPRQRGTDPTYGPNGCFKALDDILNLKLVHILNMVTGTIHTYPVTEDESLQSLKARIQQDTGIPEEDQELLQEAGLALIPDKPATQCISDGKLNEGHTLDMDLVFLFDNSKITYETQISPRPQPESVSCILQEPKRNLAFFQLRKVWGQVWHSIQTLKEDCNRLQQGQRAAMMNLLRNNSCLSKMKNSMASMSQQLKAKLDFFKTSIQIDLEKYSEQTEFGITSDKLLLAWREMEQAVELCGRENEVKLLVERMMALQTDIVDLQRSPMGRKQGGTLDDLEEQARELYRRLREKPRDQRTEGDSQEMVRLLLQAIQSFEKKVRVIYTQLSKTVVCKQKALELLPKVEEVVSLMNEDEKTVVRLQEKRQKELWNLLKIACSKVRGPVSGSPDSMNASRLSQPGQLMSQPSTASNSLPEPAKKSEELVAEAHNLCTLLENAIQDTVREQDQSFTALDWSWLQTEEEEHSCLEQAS
Chain of TXK (human) (P42681 whole entry, looked up): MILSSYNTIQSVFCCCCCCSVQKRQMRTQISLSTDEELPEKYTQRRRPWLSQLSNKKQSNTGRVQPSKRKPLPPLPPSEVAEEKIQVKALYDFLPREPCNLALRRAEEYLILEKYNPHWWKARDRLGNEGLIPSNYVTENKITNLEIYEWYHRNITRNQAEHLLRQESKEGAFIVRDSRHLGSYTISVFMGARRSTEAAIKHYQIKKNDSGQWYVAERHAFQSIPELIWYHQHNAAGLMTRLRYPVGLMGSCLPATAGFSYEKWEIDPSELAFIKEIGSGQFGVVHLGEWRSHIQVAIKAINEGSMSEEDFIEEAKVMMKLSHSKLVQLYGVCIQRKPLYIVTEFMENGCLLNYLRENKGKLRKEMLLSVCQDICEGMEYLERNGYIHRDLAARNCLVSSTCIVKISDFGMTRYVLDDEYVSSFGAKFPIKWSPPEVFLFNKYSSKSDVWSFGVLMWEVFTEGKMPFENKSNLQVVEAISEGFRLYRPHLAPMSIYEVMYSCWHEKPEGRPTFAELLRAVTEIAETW
Chain of FRK (human) (P42685 whole entry, looked up): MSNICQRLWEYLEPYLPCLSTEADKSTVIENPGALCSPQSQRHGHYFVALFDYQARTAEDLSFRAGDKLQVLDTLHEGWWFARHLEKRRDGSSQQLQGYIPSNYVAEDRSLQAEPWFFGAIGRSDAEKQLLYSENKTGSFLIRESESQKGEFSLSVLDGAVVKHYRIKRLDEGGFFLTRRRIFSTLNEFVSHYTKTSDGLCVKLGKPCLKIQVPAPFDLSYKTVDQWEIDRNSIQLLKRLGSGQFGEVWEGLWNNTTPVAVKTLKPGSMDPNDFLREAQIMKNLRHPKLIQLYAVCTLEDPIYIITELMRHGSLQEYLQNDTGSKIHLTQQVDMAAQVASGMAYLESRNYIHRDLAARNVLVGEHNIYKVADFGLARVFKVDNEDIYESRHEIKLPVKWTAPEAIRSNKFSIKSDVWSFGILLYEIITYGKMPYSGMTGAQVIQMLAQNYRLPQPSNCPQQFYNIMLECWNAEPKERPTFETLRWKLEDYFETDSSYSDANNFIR

With `CC(C)(C)c1cc(C=C(C#N)C#N)cc(Br)c1O` the residual activity (MERTK (human)) was 97.3%, the residual activity (GSK3B (human)) was 107% and the residual activity (MAP3K7 TAB1 (human)) was 87.9%. It also gave a residual activity (PTK2 (human)) of 107%, a residual activity (PRKCD (human)) of 83% and a residual activity (TAOK2 (human)) of 96.5%. For the same compound, the residual activity (MST4 (human)) was 95.2%, the residual activity (FRK (human)) was 99.3% and the residual activity (AURKC (human)) was 87.6%. For the same compound, the residual activity (BTK (human)) was 101%, the residual activity (RPS6KA5 KD2 (human)) was 108% and the residual activity (CLK1 (human)) was 112%. The residual activity (PDGFRB (human)) was 104%, the residual activity (MAPK13 (human)) was 98.5% and the residual activity (MARK4 (human)) was 103%. The residual activity (EPHB2 (human)) was 100%, the residual activity (CAMK1G (human)) was 104% and the residual activity (MAP4K5 (human)) was 95.8%. It also gave a residual activity (PDPK1 (human)) of 102%, a residual activity (MAP3K3 (human)) of 118% and a residual activity (PRKCZ (human)) of 102%. It also gave a residual activity (ZAP70 (human)) of 91.6%, a residual activity (PLK3 (human)) of 94.6% and a residual activity (IKBKB (human)) of 95.7%. For the same compound, the residual activity (CDC42BPB (human)) was 103%, the residual activity (DYRK4 (human)) was 98.2% and the residual activity (MAPKAPK5 (human)) was 97.4%. It also gave a residual activity (TSSK2 (human)) of 96.6%, a residual activity (RPS6KA6 KD1 KD2 (human)) of 101% and a residual activity (PAK2 (human)) of 96.5%. It also gave a residual activity (IGF1R (human)) of 96.6%, a residual activity (MAP3K2 (human)) of 93.7% and a residual activity (LIMK1 (human)) of 98.5%. The residual activity (PRKX (human)) was 102%, the residual activity (RIPK2 (human)) was 32.8% and the residual activity (LCK (human)) was 87.8%. The residual activity (STK11 (human)) was 85.2%, the residual activity (RET (human)) was 98.2% and the residual activity (TXK (human)) was 108%. It also gave a residual activity (MINK1 (human)) of 111%, a residual activity (DSTYK (human)) of 105% and a residual activity (TGFBR1 (human)) of 103%.
For `COc1ccc(S(=O)(=O)N(CCO)c2ccccc2CN(C)C/C=C/c2ccc(Cl)cc2)cc1`, the residual activity (MERTK (human)) was 97%, the residual activity (GSK3B (human)) was 102% and the residual activity (MAP3K7 TAB1 (human)) was 94.7%. For the same compound, the residual activity (PTK2 (human)) was 104%, the residual activity (PRKCD (human)) was 94.3% and the residual activity (TAOK2 (human)) was 90.9%. For the same compound, the residual activity (MST4 (human)) was 105%, the residual activity (FRK (human)) was 106% and the residual activity (AURKC (human)) was 96.8%. It also gave a residual activity (BTK (human)) of 96.4%, a residual activity (RPS6KA5 KD2 (human)) of 103% and a residual activity (CLK1 (human)) of 96.4%. The residual activity (PDGFRB (human)) was 104%, the residual activity (MAPK13 (human)) was 102% and the residual activity (MARK4 (human)) was 102%. It also gave a residual activity (EPHB2 (human)) of 97.7%, a residual activity (CAMK1G (human)) of 101% and a residual activity (MAP4K5 (human)) of 99.7%. The residual activity (PDPK1 (human)) was 93.7%, the residual activity (MAP3K3 (human)) was 99.8% and the residual activity (PRKCZ (human)) was 100%. For the same compound, the residual activity (ZAP70 (human)) was 84.7%, the residual activity (PLK3 (human)) was 99.4% and the residual activity (IKBKB (human)) was 98.1%. For the same compound, the residual activity (CDC42BPB (human)) was 101%, the residual activity (DYRK4 (human)) was 99.6% and the residual activity (MAPKAPK5 (human)) was 100%. It also gave a residual activity (TSSK2 (human)) of 107%, a residual activity (RPS6KA6 KD1 KD2 (human)) of 102% and a residual activity (PAK2 (human)) of 101%. It also gave a residual activity (IGF1R (human)) of 103%, a residual activity (MAP3K2 (human)) of 95.3% and a residual activity (LIMK1 (human)) of 102%. The residual activity (PRKX (human)) was 104%, the residual activity (RIPK2 (human)) was 87% and the residual activity (LCK (human)) was 95.5%. It also gave a residual activity (STK11 (human)) of 97.7%, a residual activity (RET (human)) of 103% and a residual activity (TXK (human)) of 95.6%. It also gave a residual activity (MINK1 (human)) of 98.1%, a residual activity (DSTYK (human)) of 93.5% and a residual activity (TGFBR1 (human)) of 101%.
